# Publication PMC5668067, “Phase I dose-escalation study of the c-Met tyrosine kinase inhibitor SAR125844 in Asian patients with advanced solid tumors, including patients with MET-amplified gastric cancer” (Oncotarget, 2017)
# “Also recorded” adds a separate entry of the source. Where two headings read alike, the source gives them in different places.
# How the values were obtained:
# [1] = biological target: c-Met kinase; design: method as in PMID 25504634; conditions: cited from earlier work
# [2] = phase I pharmacokinetics in blood (dried blood spot, LC-MS/MS, noncompartmental analysis); assay type: in vivo, human; conditions: for fold increase in AUC0–168: 2.19-fold increase in dose (260 to 570 mg/m^2); for Cmax: blood; for AUC(0-t): read-out: AUC0–168
# Protocol: Blood samples for pharmacokinetic analysis were acquired using dried blood-spot technology on days 1 and 22 of cycle 1 at several time points before, during, and after infusion (up to 168 hours after administration). Drug concentrations were determined by a validated method of liquid chromatography and tandem mass spectrometry (limit of quantification 2 ng/mL). Pharmacokinetic parameters were calculated using a noncompartmental analysis and included the maximum observed blood concentration (Cmax), AUC from 0 to infinity, AUC0–168, CL, CL after repeated administrations (CLss), volume of distribution at steady state (Vss), and the half-life associated with the terminal slope (t1/2z).
# [3] = tested on: solid tumors, including MET-amplified gastric cancer; experiment: phase I antitumor activity (RECIST 1.1); assay type: in vivo, human
# Protocol: Tumor response was evaluated by the Response Evaluation Criteria In Solid Tumors version 1.1, which define complete response as disappearance of all target lesions, partial response and progressive disease as a minimally 30% decrease or 20% increase, respectively, in the sum of diameters of target lesions, and stable disease as neither sufficient shrinkage to qualify for partial response nor sufficient increase to qualify for progressive disease. Tumor burden was assessed from computerized tomography or magnetic resonance imaging scans performed at baseline, at the end of cycle 1, and every 8 weeks thereafter. Patients evaluable for efficacy received at least one cycle of SAR, with a minimum of two infusions, and had undergone efficacy assessment at baseline and once or more after that.
# In the dose-expansion cohort, MET amplification in tumor tissue was evaluated by a FISH assay. A tumor was considered MET amplified if ≥ 10% of cells had more than four gene copies of MET and the MET:CEP7 ratio was ≥ 2. Total c-MET protein expression was evaluated by immunohistochemistry, calculating the percentage of tumor cells with an immunohistochemistry score of 2+ or 3+ membrane staining. […] Immunohistochemistry was performed on fresh or archival tumor tissue.
# [4] = tested on: Asian patients with solid tumors; experiment: phase I dose escalation: dose-limiting toxicities, MTD and recommended dose; assay type: in vivo
# Protocol: This was an open-label, phase I, multicenter study consisting of a dose-escalation phase (to determine the MTD of SAR) and a dose-expansion phase (to evaluate the antitumor activity of SAR at the RD in patients with MET-amplified tumors, including gastric cancer).
# The model was run based on DLTs occurring during the first cycle of treatment.
# SAR was administered by weekly intravenous infusion on days 1, 8, 15, and 22 of each 28–day cycle. The starting dose was 260 mg/m^2, and dose increments of 30% were made, to a maximum of 570 mg/m^2. Treatment continued until disease progression, unacceptable toxicity, or consent withdrawal. Patients were screened within 21 days before the first administration and followed for 30 days after the last administration.
# A DLT was defined as grade 4 neutropenia for ≥ 7 consecutive days, febrile neutropenia, grade 4 thrombocytopenia or grade 3 thrombocytopenia with bleeding requiring a transfusion, any grade ≥ 3 nonhematologic event not easily managed or corrected by medical intervention, or SAR-related toxicity resulting in two or more missed doses.
# The safety population consisted of all patients exposed to SAR, regardless of the amount of treatment administered.
# [5] = tested on: patients with solid tumors; design: method as in ref 9 = [9]; 9 Angevin E Spitaleri G Hollebecque A De Pas T Soria JC Harnois M Mazuir F Assadourian S De Marinis F A first-in-human (FIH) phase I study of SAR125844, a novel selective MET kinase inhibitor, in pati; conditions: cited from earlier work
# [6] = human, whole blood (dried blood spot), intravenous, 260 mg/m2, 260 mg/m^2, cycle 1 Day 22, N = 2, mean
# [7] = human, whole blood (dried blood spot), intravenous, 340 mg/m2, 340 mg/m^2, cycle 1 Day 1, N = 2, mean
# [8] = human, whole blood (dried blood spot), intravenous, 340 mg/m2, 340 mg/m^2, cycle 1 Day 22, N = 3, mean ± SD
# [9] = human, whole blood (dried blood spot), intravenous, 440 mg/m2, 440 mg/m^2, cycle 1 Day 1, n = 2, mean
# [10] = human, whole blood (dried blood spot), intravenous, 440 mg/m2, 440 mg/m^2, cycle 1 Day 22, N = 3, mean ± SD
# [11] = human, whole blood (dried blood spot), intravenous, 570 mg/m2, 570 mg/m^2, cycle 1 Day 1, n = 20, mean ± SD
# [12] = human, whole blood (dried blood spot), intravenous, 570 mg/m2, 570 mg/m^2, cycle 1 Day 22, N = 17, mean ± SD
# [13] = dose-expansion cohort (N = 19), 570 mg/m^2
smiles,measurement,setting,value
O=C(NCCN1CCOCC1)Nc1nc2ccc(Sc3nnc4ccc(-c5ccc(F)cc5)nn34)cc2s1 [SAR125844],IC50,[1]; read-out: half-maximal inhibitory concentration,4.2 nM
same,Ki,[1]; read-out: inhibitory constant,2.8 nM
same,fold increase in AUC0–168,[2]; day 1,3.00 fold
same,fold increase in AUC0–168,[2]; day 22,2.69 fold
same,accumulation between days 1 and 22,[2]; four repeated once-weekly infusions,no accumulation
same,Cmax,"[2]; human, whole blood (dried blood spot), intravenous, 260 mg/m2, 260 mg/m^2, cycle 1 Day 1, N = 6, mean ± SD",4.14 ± 1.07 µg/mL
same,AUC(0-t),"[2]; human, whole blood (dried blood spot), intravenous, 260 mg/m2, 260 mg/m^2, cycle 1 Day 1, n = 5, mean ± SD",11.8 ± 2.96 µg·h/mL
same,clearance,"[2]; human, whole blood (dried blood spot), intravenous, 260 mg/m2, 260 mg/m^2, cycle 1 Day 1, n = 5, mean ± SD, read-out: CL (converted)",608 mL/min
same,Vd,"[2]; human, whole blood (dried blood spot), intravenous, 260 mg/m2, 260 mg/m^2, cycle 1 Day 1, n = 5, mean ± SD, read-out: Vss",232 ± 57.5 L
same,half-life,"[2]; human, whole blood (dried blood spot), intravenous, 260 mg/m2, 260 mg/m^2, cycle 1 Day 1, n = 5, mean ± SD, read-out: t1/2z (converted)",12.6 ± 6.05 h
same,AUC,[2]; [6],12.6 µg·h/mL
same,Cmax,[2]; [6],3.55 µg/mL
same,AUC(0-t),[2]; [6],12.7 µg·h/mL
same,clearance,"[2]; human, whole blood (dried blood spot), intravenous, 260 mg/m2, 260 mg/m^2, cycle 1 Day 22, N = 2, mean, read-out: CL (converted)",533 mL/min
same,Vd,"[2]; human, whole blood (dried blood spot), intravenous, 260 mg/m2, 260 mg/m^2, cycle 1 Day 22, N = 2, mean, read-out: Vss",186 L
same,half-life,"[2]; human, whole blood (dried blood spot), intravenous, 260 mg/m2, 260 mg/m^2, cycle 1 Day 22, N = 2, mean, read-out: t1/2z (converted)",12.6 h
same,AUC,"[2]; human, whole blood (dried blood spot), intravenous, 260 mg/m2, AUC from 0 to infinity, 260 mg/m^2, cycle 1 Day 1, n = 5, mean ± SD",11.8 ± 2.95 µg·h/mL
same,AUC,[2]; [7],16.4 µg·h/mL
same,Cmax,[2]; [7],4.29 µg/mL
same,AUC(0-t),[2]; [7],16.4 µg·h/mL
same,clearance,"[2]; human, whole blood (dried blood spot), intravenous, 340 mg/m2, 340 mg/m^2, cycle 1 Day 1, N = 2, mean, read-out: CL (converted)",565 mL/min
same,Vd,"[2]; human, whole blood (dried blood spot), intravenous, 340 mg/m2, 340 mg/m^2, cycle 1 Day 1, N = 2, mean, read-out: Vss",246 L
same,half-life,"[2]; human, whole blood (dried blood spot), intravenous, 340 mg/m2, 340 mg/m^2, cycle 1 Day 1, N = 2, mean, read-out: t1/2z (converted)",12.9 h
same,AUC,[2]; [8],16.5 ± 2.39 µg·h/mL
same,Cmax,[2]; [8],4.7 ± 0.976 µg/mL
same,AUC(0-t),[2]; [8],16.5 ± 2.39 µg·h/mL
same,clearance,"[2]; human, whole blood (dried blood spot), intravenous, 340 mg/m2, 340 mg/m^2, cycle 1 Day 22, N = 3, mean ± SD, read-out: CL (converted)",557 mL/min
same,Vd,"[2]; human, whole blood (dried blood spot), intravenous, 340 mg/m2, 340 mg/m^2, cycle 1 Day 22, N = 3, mean ± SD, read-out: Vss",291 ± 52.6 L
same,half-life,"[2]; human, whole blood (dried blood spot), intravenous, 340 mg/m2, 340 mg/m^2, cycle 1 Day 22, N = 3, mean ± SD, read-out: t1/2z (converted)",20.6 ± 4.69 h
same,Cmax,"[2]; human, whole blood (dried blood spot), intravenous, 440 mg/m2, 440 mg/m^2, cycle 1 Day 1, N = 3, mean ± SD",6.39 ± 1.01 µg/mL
same,AUC,[2]; [9],22 µg·h/mL
same,AUC(0-t),[2]; [9],22.1 µg·h/mL
same,clearance,"[2]; human, whole blood (dried blood spot), intravenous, 440 mg/m2, 440 mg/m^2, cycle 1 Day 1, n = 2, mean, read-out: CL (converted)",530 mL/min
same,Vd,"[2]; human, whole blood (dried blood spot), intravenous, 440 mg/m2, 440 mg/m^2, cycle 1 Day 1, n = 2, mean, read-out: Vss",202 L
same,half-life,"[2]; human, whole blood (dried blood spot), intravenous, 440 mg/m2, 440 mg/m^2, cycle 1 Day 1, n = 2, mean, read-out: t1/2z (converted)",12.1 h
same,AUC,[2]; [10],25.4 ± 5.3 µg·h/mL
same,Cmax,[2]; [10],5.84 ± 1.42 µg/mL
same,AUC(0-t),[2]; [10],25.3 ± 5.22 µg·h/mL
same,clearance,"[2]; human, whole blood (dried blood spot), intravenous, 440 mg/m2, 440 mg/m^2, cycle 1 Day 22, N = 3, mean ± SD, read-out: CL (converted)",503 mL/min
same,Vd,"[2]; human, whole blood (dried blood spot), intravenous, 440 mg/m2, 440 mg/m^2, cycle 1 Day 22, N = 3, mean ± SD, read-out: Vss",490 ± 366 L
same,half-life,"[2]; human, whole blood (dried blood spot), intravenous, 440 mg/m2, 440 mg/m^2, cycle 1 Day 22, N = 3, mean ± SD, read-out: t1/2z (converted)",27.5 ± 8.24 h
same,Cmax,"[2]; human, whole blood (dried blood spot), intravenous, 570 mg/m2, 570 mg/m^2, cycle 1 Day 1, N = 21, mean ± SD",6.57 ± 1.68 µg/mL
same,AUC,[2]; [11],36.2 ± 11.8 µg·h/mL
same,AUC(0-t),[2]; [11],36.1 ± 11.8 µg·h/mL
same,clearance,"[2]; human, whole blood (dried blood spot), intravenous, 570 mg/m2, 570 mg/m^2, cycle 1 Day 1, n = 20, mean ± SD, read-out: CL (converted)",463 mL/min
same,Vd,"[2]; human, whole blood (dried blood spot), intravenous, 570 mg/m2, 570 mg/m^2, cycle 1 Day 1, n = 20, mean ± SD, read-out: Vss",241 ± 55.3 L
same,half-life,"[2]; human, whole blood (dried blood spot), intravenous, 570 mg/m2, 570 mg/m^2, cycle 1 Day 1, n = 20, mean ± SD, read-out: t1/2z (converted)",22.8 ± 9.47 h
same,AUC,[2]; [12],35.1 ± 15 µg·h/mL
same,Cmax,[2]; [12],6.33 ± 1.27 µg/mL
same,AUC(0-t),[2]; [12],35.1 ± 14.9 µg·h/mL
same,clearance,"[2]; human, whole blood (dried blood spot), intravenous, 570 mg/m2, 570 mg/m^2, cycle 1 Day 22, N = 17, mean ± SD, read-out: CL (converted)",482 mL/min
same,Vd,"[2]; human, whole blood (dried blood spot), intravenous, 570 mg/m2, 570 mg/m^2, cycle 1 Day 22, N = 17, mean ± SD, read-out: Vss",287 ± 105 L
same,half-life,"[2]; human, whole blood (dried blood spot), intravenous, 570 mg/m2, 570 mg/m^2, cycle 1 Day 22, N = 17, mean ± SD, read-out: t1/2z (converted)",21.2 ± 4.94 h
same,half-life,"[2]; human, whole blood (dried blood spot), intravenous, 570 mg/m2, at the RD (570 mg/m^2), read-out: elimination half-life (converted)",~21 h
same,Vd,"[2]; human, whole blood (dried blood spot), intravenous, 570 mg/m2, at the RD (570 mg/m^2), read-out: volume of distribution at steady state",~253 L
same,clearance,[2]; qualitative,medium
same,effect of dose on total body clearance (CL),"[2]; statistical analysis, P = 0.25",no significant effect
same,effect of dose on CL at steady state (CLs),"[2]; statistical analysis, P = 0.79",no significant effect
same,patients with early disease progression leading to treatment discontinuation in cycle 1,[3]; dose-escalation cohort,11 patients
same,objective responses,"[3]; dose-escalation cohort (unselected population, N = 19)",No objective responses
same,median time to tumor progression,"[3]; dose-escalation cohort, 340 mg/m^2",0.9 months
same,median time to tumor progression,"[3]; dose-escalation cohort, 440 mg/m^2",1.7 months
same,patients with stable disease,"[3]; dose-escalation cohort, after 1 month of treatment",seven
same,patients with stable disease,"[3]; dose-escalation cohort, after 1 month of treatment, listed as SAR",7 patients
same,patients with progressive disease,[3]; [13],10 patients
same,patients with stable disease,[3]; [13],seven
same,confirmed partial response / objective response rate,"[3]; dose-expansion cohort, MET-amplified tumors, 570 mg/m^2, two of 19 patients",10.5%
same,patients with unconfirmed partial response,"[3]; dose-expansion cohort, gastric cancer",one
same,median time to tumor progression,"[3]; dose-expansion cohort, median (range)",0.92 (0.4–9) months
same,median time to tumor progression,"[3]; gastric cancer subpopulation of dose-expansion cohort, median (range)",1.18 (0.4–9) months
same,overall response rate (partial response rate),"[3]; gastric cancer subpopulation with MET amplification, two of 14 patients",14.3%
same,recommended dose (RD),"[4]; Asian patients, weekly i.v. infusion",570 mg/m^2
same,maximum tolerated dose (MTD),"[4]; dose-escalation cohort, 260–570 mg/m^2 weekly i.v.",not reached
same,dose-limiting toxicities (DLTs),"[4]; dose-escalation phase, listed as SAR",No dose-limiting toxicities; also recorded: No DLTs
same,patients with a DLT,"[4]; expansion cohort, 570 mg/m^2, of 19 patients, cycle 1, transaminase and creatinine increases",one
same,recommended dose (RD),"[5]; first-in-human study, Western countries, intravenously",570 mg/m^2 per week
same,tolerability profile,"[5]; first-in-human study, doses 50‒740 mg/m^2",acceptable tolerability profile
same,antitumor activity,[5]; one patient with lung adenocarcinoma and MET amplification,Preliminary evidence of antitumor activity
